# According to patent US10111433B2 (priority 2014, dated 2018):
# Where two headings read alike, the source gives them in different places.
# What was measured:
# [1] = system: Phytophthora capsici; test: Activity against Phytophthora capsici, growth inhibition in nutrient broth (microtiter plate); type: cell-based
# Procedure: Conidia of the fungus from cryogenic storage are directly mixed into nutrient broth (PDB potato dextrose broth). After placing a (DMSO) solution of test compound into a microtiter plate (96-well format), the nutrient broth containing the fungal spores is added. […] Table B4 to B21 gives the mean percent control relative to untreated.
# [2] = system: Phytophthora infestans; type: in vivo
# [3] = system: Plasmopara viticola; test: Field activity against Plasmopara viticola on grapevine; type: in vivo; settings: Table B2; Mandipropamid 93.75 gai/ha; bunches, ten days after sixth application
# Text: Merlot grapevines were cultivated in rows with 1 m between plants within the row, and 2 m spaces between rows. Treatment plots were defined with an 8 m^2 vertical area. The trial consisted of three replicates of the treatment list, with the positions of each treatment plot randomised within the replicate.
# Test compounds were formulated and applied to the relevant treatment plots, using a backpack sprayer with a flat fan nozzle. The first application was made when the majority of plants were at growth stage BBCH 15 and following applications at 10-14 day intervals through to growth stage BBCH 79.
# The first symptoms of the target pathogen Plasmopara viticola were observed between the second and third applications. Plants outside the trial area were inoculated to increase the disease pressure, but infection processes within the trial plots were natural. […]
# Ten days after the sixth application, at growth stage BBCH 79, the fruit was assessed for infection by Plasmopara viticola. 50 bunches per plot were assessed, the scores given in table B2 are percent disease control relative to untreated, based on the mean percentage of bunches showing symptoms of infection across all three replicates of a treatment.
# [4] = system: Phytophthora infestans; type: in vivo; settings: Table B3; Chlorothalonil 1000 gai/ha; leaf area, four days after final application
# [5] = Table B20, Iprovalicarb 0.6250 ppm, no A-1.2 rate printed in the row
compound,measurement,setting,value
O=C1c2ccccc2C(=O)N1SC(Cl)(Cl)Cl [Folpet],inhibition of growth at 0.0313 ppm,"[1]; Phytophthora capsici, Table B12, Folpet 0.0313 ppm, read-out: % disease control",17%
same,inhibition of growth at 0.0625 ppm,"[1]; Phytophthora capsici, Table B12, Folpet 0.0625 ppm, read-out: % disease control",11%
same,inhibition of growth at 0.125 ppm,"[1]; Phytophthora capsici, Table B12, Folpet 0.1250 ppm, read-out: % disease control",19%
same,inhibition of growth at 0.25 ppm,"[1]; Phytophthora capsici, Table B12, Folpet 0.2500 ppm, read-out: % disease control",19%
same,% disease control,"[2]; Table B1.2, Folpet 20 ppm",0%
same,% disease control,"[2]; Table B1.2, Folpet 60 ppm",33%
CO/C=C(/C(=O)OC)c1ccccc1Oc1cc(Oc2ccccc2C#N)ncn1 [Azoxystrobin],% disease control,"[1]; Table B7, Azoxystrobin 0.0313 ppm",23%
same,% disease control,"[1]; Table B7, Azoxystrobin 0.0625 ppm",23%
same,% disease control,"[1]; Table B7, Azoxystrobin 0.1250 ppm",62%
N#Cc1sc2c(=O)c3ccccc3c(=O)c=2sc1C#N [Dithianon],inhibition of growth at 0.125 ppm,"[1]; Phytophthora capsici, Table B6, Dithianon 0.1250 ppm, read-out: % disease control",0%
same,inhibition of growth at 0.25 ppm,"[1]; Phytophthora capsici, Table B6, Dithianon 0.2500 ppm, read-out: % disease control",7%
same,inhibition of growth at 0.5 ppm,"[1]; Phytophthora capsici, Table B6, Dithianon 0.5000 ppm, read-out: % disease control",8%
same,inhibition of growth at 1 ppm,"[1]; Phytophthora capsici, Table B6, Dithianon 1.0000 ppm, read-out: % disease control",25%
Cc1ccc(C(C)NC(=O)[C@@H](NC(=O)OC(C)C)C(C)C)cc1 (stereo partly shown) [Iprovalicarb],% disease control,[1]; [5],91%
same,Expected action (Colby),[1]; [5],66%
same,% disease control,"[1]; Table B20, Iprovalicarb 1.2500 ppm",18%
same,% disease control,"[1]; Table B20, Iprovalicarb 2.5000 ppm",0%
CCC(C)(NC(=O)c1cc(Cl)c(C)c(Cl)c1)C(=O)CCl (stereo not shown) [Zoxamid],inhibition of growth at 0.0063 ppm,"[1]; Phytophthora capsici, Table B14, Zoxamid 0.0063 ppm, read-out: % disease control",19%
same,inhibition of growth at 0.0125 ppm,"[1]; Phytophthora capsici, Table B14, Zoxamid 0.0125 ppm, read-out: % disease control",40%
same,inhibition of growth at 0.025 ppm,"[1]; Phytophthora capsici, Table B14, Zoxamid 0.0250 ppm, read-out: % disease control",48%
same,inhibition of growth at 0.05 ppm,"[1]; Phytophthora capsici, Table B14, Zoxamid 0.0500 ppm, read-out: % disease control",65%
Cc1c(Br)c2ccc(F)cc2n1S(=O)(=O)c1ncn(S(=O)(=O)N(C)C)n1 [Amisulbrom],% disease control,"[1]; Table B16, Amisulbrom 0.0063 ppm",5%
same,% disease control,"[1]; Table B16, Amisulbrom 0.0125 ppm",6%
same,% disease control,"[1]; Table B16, Amisulbrom 0.0500 ppm",24%
same,% disease control,"[1]; Table B16, Amisulbrom 0.1000 ppm",35%
COc1ccc(C(=CC(=O)N2CCOCC2)c2ccc(Cl)cc2)cc1OC [Dimetomorph],inhibition of growth at 0.0031 ppm,"[1]; Phytophthora capsici, Table B10, Dimetomorph 0.0031 ppm, read-out: % disease control",0%
same,inhibition of growth at 0.0063 ppm,"[1]; Phytophthora capsici, Table B10, Dimetomorph 0.0063 ppm, read-out: % disease control",14%
same,inhibition of growth at 0.0125 ppm,"[1]; Phytophthora capsici, Table B10, Dimetomorph 0.0125 ppm, read-out: % disease control",0%
same,inhibition of growth at 0.1 ppm,"[1]; Phytophthora capsici, Table B10, Dimetomorph 0.1000 ppm, read-out: % disease control",28%
O=[N+]([O-])c1cc(C(F)(F)F)c(Cl)c([N+](=O)[O-])c1Nc1ncc(C(F)(F)F)cc1Cl [Fluazinam],inhibition of growth at 0.0625 ppm,"[1]; Phytophthora capsici, Table B11, Fluazinam 0.0625 ppm, read-out: % disease control",4%
same,inhibition of growth at 0.125 ppm,"[1]; Phytophthora capsici, Table B11, Fluazinam 0.1250 ppm, read-out: % disease control",10%
same,inhibition of growth at 0.25 ppm,"[1]; Phytophthora capsici, Table B11, Fluazinam 0.2500 ppm, read-out: % disease control",0%
same,inhibition of growth at 0.5 ppm,"[1]; Phytophthora capsici, Table B11, Fluazinam 0.5000 ppm, read-out: % disease control",14%
Mancozeb,% disease control,"[1]; Table B4, Mancozeb 0.3125 ppm",3%
same,% disease control,"[1]; Table B4, Mancozeb 0.6250 ppm",1%
same,% disease control,"[1]; Table B4, Mancozeb 1.2500 ppm",0%
same,% disease control,"[1]; Table B4, Mancozeb 2.5000 ppm",0%
same,% disease control,"[1]; Table B4, Mancozeb 5.0000 ppm",1%
same,% disease control,"[1]; Table B4, Mancozeb 10.0000 ppm",1%
same,% disease control,"[1]; Table B4, Mancozeb 20.0000 ppm",0%
CCNC(=O)NC(=O)/C(C#N)=N/OC [Cymoxanil],inhibition of growth at 0.0625 ppm,"[1]; Phytophthora capsici, Table B13, Cymoxanil 0.0625 ppm, read-out: % disease control",0%
same,inhibition of growth at 0.125 ppm,"[1]; Phytophthora capsici, Table B13, Cymoxanil 0.1250 ppm, read-out: % disease control",10%
same,inhibition of growth at 0.25 ppm,"[1]; Phytophthora capsici, Table B13, Cymoxanil 0.2500 ppm, read-out: % disease control",0%
same,inhibition of growth at 0.5 ppm,"[1]; Phytophthora capsici, Table B13, Cymoxanil 0.5000 ppm, read-out: % disease control",11%
same,inhibition of growth at 1 ppm,"[1]; Phytophthora capsici, Table B13, Cymoxanil 1.0000 ppm, read-out: % disease control",8%
same,inhibition of growth at 2 ppm,"[1]; Phytophthora capsici, Table B13, Cymoxanil 2.0000 ppm, read-out: % disease control",36%
C#CCOc1ccc(CCNC(=O)C(OCC#C)c2ccc(Cl)cc2)cc1OC (stereo not shown) [Mandipropamid],% disease control,"[1]; Table B9, Mandipropamid 0.0003 ppm",16%
same,% disease control,"[1]; Table B9, Mandipropamid 0.0006 ppm",0%
same,% disease control,"[1]; Table B9, Mandipropamid 0.0012 ppm",0%
same,% disease control,"[1]; Table B9, Mandipropamid 0.0025 ppm",17%
same,% disease control,"[1]; Table B9, Mandipropamid 0.0050 ppm",13%
same,% disease control,"[1]; Table B9, Mandipropamid 0.0100 ppm",15%
same,% disease control relative to untreated,[3],17.3%
same,% disease control,"[2]; Table B1.1, Mandipropamid 0.06 ppm",0%
same,% disease control,"[2]; Table B1.1, Mandipropamid 0.2 ppm",0%
same,% disease control,"[2]; Table B1.1, Mandipropamid 0.6 ppm",3%
N#Cc1c(Cl)c(Cl)c(Cl)c(C#N)c1Cl [Chlorothalonil],% disease control relative to untreated,[4],4.3%
same,inhibition of growth at 0.0781 ppm,"[1]; Phytophthora capsici, Table B5, Chlorothalonil 0.0781 ppm, read-out: % disease control",24%
same,inhibition of growth at 0.1563 ppm,"[1]; Phytophthora capsici, Table B5, Chlorothalonil 0.1563 ppm, read-out: % disease control",24%
same,inhibition of growth at 0.3125 ppm,"[1]; Phytophthora capsici, Table B5, Chlorothalonil 0.3125 ppm, read-out: % disease control",23%
same,inhibition of growth at 0.625 ppm,"[1]; Phytophthora capsici, Table B5, Chlorothalonil 0.6250 ppm, read-out: % disease control",64%
same,% disease control,"[2]; Table B1.3, Chlorothalonil 60 ppm",6%
CCCCCCCCc1c(CC)nc2ncnn2c1N [Ametoctradin],% disease control,"[1]; Table B17, Ametoctradin 0.0063 ppm",8%
same,% disease control,"[1]; Table B17, Ametoctradin 0.0125 ppm",8%
same,% disease control,"[1]; Table B17, Ametoctradin 0.0250 ppm",13%
same,% disease control,"[1]; Table B17, Ametoctradin 0.0500 ppm",30%
CSC1=N[C@@](C)(c2ccccc2)C(=O)N1Nc1ccccc1 [Fenamidone],inhibition of growth at 0.0031 ppm,"[1]; Phytophthora capsici, Table B18, Fenamidone 0.0031 ppm, read-out: % disease control",12%
same,inhibition of growth at 0.0063 ppm,"[1]; Phytophthora capsici, Table B18, Fenamidone 0.0063 ppm, read-out: % disease control",4%
same,inhibition of growth at 0.0125 ppm,"[1]; Phytophthora capsici, Table B18, Fenamidone 0.0125 ppm, read-out: % disease control",41%
same,inhibition of growth at 0.025 ppm,"[1]; Phytophthora capsici, Table B18, Fenamidone 0.0250 ppm, read-out: % disease control",54%
O=C(NCc1ncc(C(F)(F)F)cc1Cl)c1c(Cl)cccc1Cl [Fluopicolid],% disease control,"[1]; Table B15, Fluopicolid 0.0625 ppm",6%
same,% disease control,"[1]; Table B15, Fluopicolid 0.1250 ppm",59%
same,% disease control,"[1]; Table B15, Fluopicolid 0.2500 ppm",69%
same,% disease control,"[1]; Table B15, Fluopicolid 0.5000 ppm",79%
COCC(=O)N(c1c(C)cccc1C)[C@H](C)C(=O)OC [Mefenoxam],% disease control,"[1]; Table B8, Mefenoxam 0.0031 ppm",0%
same,% disease control,"[1]; Table B8, Mefenoxam 0.0063 ppm",13%
same,% disease control,"[1]; Table B8, Mefenoxam 0.0125 ppm",13%
same,% disease control,"[1]; Table B8, Mefenoxam 0.0250 ppm",28%
same,% disease control,"[1]; Table B8, Mefenoxam 0.0500 ppm",42%
CCO[PH](=O)[O-].CCO[PH](=O)[O-].CCO[PH](=O)[O-].[Al+3] [Fosethyl-Al],% disease control,"[1]; Table B21, Fosethyl-Al 0.3125 ppm",8%
same,% disease control,"[1]; Table B21, Fosethyl-Al 0.6250 ppm",14%
same,% disease control,"[1]; Table B21, Fosethyl-Al 1.2500 ppm",14%
C[C@@]1(c2ccc(Oc3ccccc3)cc2)OC(=O)N(Nc2ccccc2)C1=O (racemic) [Famoxadone],inhibition of growth at 0.1563 ppm,"[1]; Phytophthora capsici, Table B19, Famoxadone 0.1563 ppm, read-out: % disease control",16%
same,inhibition of growth at 0.3125 ppm,"[1]; Phytophthora capsici, Table B19, Famoxadone 0.3125 ppm, read-out: % disease control",16%
same,inhibition of growth at 0.625 ppm,"[1]; Phytophthora capsici, Table B19, Famoxadone 0.6250 ppm, read-out: % disease control",16%
same,inhibition of growth at 1.25 ppm,"[1]; Phytophthora capsici, Table B19, Famoxadone 1.2500 ppm, read-out: % disease control",16%
same,inhibition of growth at 2.5 ppm,"[1]; Phytophthora capsici, Table B19, Famoxadone 2.5000 ppm, read-out: % disease control",16%
same,inhibition of growth at 5 ppm,"[1]; Phytophthora capsici, Table B19, Famoxadone 5.0000 ppm, read-out: % disease control",25%
